From patent publication US20220340764A1, “HYDROPHOBIC AND OLEOPHOBIC SURFACES AND USES THEREOF” (Technion Research & Development Foundation Limited, priority 2012, published 2022)

Key:
[1] = RMS roughness of wax-coated surfaces by confocal microscopy; type: physicochemical; details: for Roughness (RMS): spray coated on Si wafer, 5 seconds×4 cycles, wax solution; for RMS roughness growth: thermally-evaporated on silicon substrate
Procedure: RMS roughness (Rq) is typically calculated according to the following formula: […]
Confocal microscopy (Leica DCM3D) was used for roughness measurements. Time-dependent measurements were performed on counterpart samples having non-fluorinated wax coatings that were used for XRD time-dependent measurements. In situ time-resolved confocal microscopy was used for observation of the change in surface roughness over a constant 100 μm×100 μm area for duration of 160 hours. A topographical image was collected every hour. These experiments encompassed the same duration and time intervals as the time-dependent XRD measurements hereinabove.
Similar time-dependent measurements were performed for samples coated with fluorinated wax, maintained at a temperature of 90° C., during 60 hours. These experiments were supported by time-dependent XRD measurements performed at 90° C. during 60 hours, with 1 hour time intervals.
(§1) Contact angles and RMS roughness were measured as described in Example 2 hereinabove.

[2] = Static contact angle (wettability) of wax-coated surfaces, Attension Theta tensiometer; type: physicochemical; set-up: C.A. Cyclohexane / C.A. hexadecane / C.A. Water / C.A. Glycerol / C.A. Ethylene Glycol / C.A. Benzyl Chloride / C.A. Clorobenzene: unit not given here; details: for C.A. Ethylene Glycol: liquid Ethylene Glycol; for C.A. Glycerol: liquid Glycerol; for C.A. Water: liquid Water; for C.A. Benzyl Chloride: liquid Benzyl Chloride; for C.A. Clorobenzene: liquid Clorobenzene; for C.A. Cyclohexane: liquid Cyclohexane; for C.A. hexadecane: liquid hexadecane
Description: Typically, but not exclusively, in order to measure the static contact angle, a drop of liquid is formed on the tip of a hypodermic needle attached to a screw syringe. The syringe is fastened to a stand which reduces any irregularities that are produced by manual drop deposition. The substrate is then raised until it touches the drop using the Y control of the stage. The drop is the then brought into the field of view and onto the focal point of the microscope by x-y translation of the stage and image is captured. The static contact angle is calculated by methods known in the art. An exemplary methodology and system for measuring a static contact angle in described in Example s in the Examples section that follows.
The wettability of the surfaces was characterized using water contact angle (C.A.) measurements recorded with an Attension Theta tensiometer. The water wettability measurements were performed with a constant high-purity water drop volume of 7 μL.
Oil contact angles were determined for the following liquids: Glycerol, ethylene glycol, olive oil, benzyl chloride, clorobenzene, cyclohexane and hexadecane, using an Attension Theta tensiometer with approximately 8 μL liquid drops.
Time-dependent contact angle measurements were performed during a period of two weeks.
as §1

B. cereus 407 biofilms = assay: Biofilm formation on wax-coated glass substrates, LIVE/DEAD staining, CLSM; type: cell-based, Bacillus cereus; details: glass substrate with thermally evaporated wax, in comparison to control glass surface; FIGS. 7A-7E
Procedure: Bacillus cereus 407 and ATCC 10987 stains were obtained from Michel Gohar's lab collection (INRA, France).
(§2) For biofilm generation, bacteria were grown to stationary phase in LB (Lysogeny broth) medium at 37° C. in shaking culture. The generated cultures were seeded (by dilution 1:100) into sterile polystyrene multidishes containing different substrates and inoculated into fresh media (37° C., 5 95% air/5% CO2 (v/v) statically without agitation.
(§3) To visualize the constructed biofilms, the substrates were removed from the wells, washed with PBS buffer and stained with FilmTracer™ LIVE/DEAD Biofilm Viability Kit (Molecular Probes, OR) according to the manufacturer's protocol. The stained samples were observed using an Olympus IX81 confocal laser scanning microscope (CLSM, Japan). Live cells were stained green, while dead cells were stained red. Fluorescence emission of the stained samples was measured using an Olympus IX81 CLSM equipped with 488-nm argon-ion and 543-nm helium-neon lasers.
(§4) Two different biofilm forming pathogenic bacteria, B. cereus (Gram positive) and P. aeruginosa (Gram negative), which are often encountered in clinical and industrial settings, were tested for their ability to form biofilm on glass substrates having thermally evaporated thereon the following wax materials: C24F50, C36H74, C40H82 and C44H90.

P. aeruginosa biofilm = assay: as above; type: cell-based, Pseudomonas aeruginosa PA14; details: glass substrate with thermally evaporated wax; FIGS. 8A-E
Procedure: Pseudomonas aeruginosa PA14 was obtained from Shlomo Sela's lab strain collection (Agricultural Research Organization, Israel).
as §2, §3, §4

[3] = spray coated on Si wafer, 5 seconds×4 cycles, wax solution
[4] = thermally-evaporated wax on Silicon substrate
[5] = thermally evaporated on silicon wafer, maintained at 90° C., 18 hr
[6] = thermally evaporated on silicon wafer, maintained at 90° C., 20 hr
[7] = thermally evaporated on silicon wafer, maintained at 90° C., 22 hr
[8] = thermally evaporated on silicon wafer, maintained at 90° C., 30 hr
[9] = thermally evaporated on silicon wafer, maintained at 90° C., 40 hr
[10] = thermally evaporated on silicon wafer, maintained at 90° C., 50 hr
[11] = thermally evaporated on silicon wafer, maintained at 90° C., 60 hr

FC(F)(F)C(F)(F)C(F)(F)C(F)(F)C(F)(F)C(F)(F)C(F)(F)C(F)(F)C(F)(F)C(F)(F)C(F)(F)C(F)(F)C(F)(F)C(F)(F)C(F)(F)F [C15, perfluoropentadecane]
Roughness (RMS) [1]: 0.12 μm
C.A. Ethylene Glycol [2, 3]: 59
C.A. Glycerol [2, 3]: 110
C.A. Water [2, 3]: 114

CCCCCCCCCCCCCCCCCCCCCCCCCCCCCCCCCCCCCCCCCCCCCCCCCC [C50, pentacontane]
C.A. Benzyl Chloride [2, 4]: Fully wetted
C.A. Clorobenzene [2, 4]: Fully wetted
C.A. Cyclohexane [2, 4]: Fully wetted
C.A. Ethylene Glycol [2, 4]: 100
C.A. Glycerol [2, 4]: 111
C.A. Water [2, 4]: 151
C.A. hexadecane [2, 4]: Fully wetted

CCCCCCCCCCCCCCCCCCCCCCCCCCCCCCCCCCCC [C36, hexatriacontane]
B. cereus biofilm formation on coated substrate (B. cereus 407 biofilms): Less significant inhibition of biofilm formation
Roughness (RMS) [1]: 0.07-0.1 μm
C.A. Ethylene Glycol [2, 3]: 58
C.A. Glycerol [2, 3]: 64
C.A. Water [2, 3]: 75
contact angle of a water drop ([2]; thermally-evaporated on gold surface, maintained at room temperature for a week): 165 °
C.A. Benzyl Chloride [2, 4]: Fully wetted
C.A. Clorobenzene [2, 4]: Fully wetted
C.A. Cyclohexane [2, 4]: Fully wetted
C.A. Ethylene Glycol [2, 4]: 121
C.A. Glycerol [2, 4]: 133
C.A. Water [2, 4]: 171
C.A. hexadecane [2, 4]: Fully wetted

CCCCCCCCCCCCCCCCCCCCCCCCCCCCCCCCCCCCCCCCCCCC [C44, tetratetracontane]
B. cereus biofilm formation on coated substrate (B. cereus 407 biofilms): could not adhere successfully to form confluent biofilms
C.A. Ethylene Glycol [2, 3]: 60
C.A. Glycerol [2, 3]: 96
C.A. Water [2, 3]: 96
C.A. Benzyl Chloride [2, 4]: Fully wetted
C.A. Clorobenzene [2, 4]: Fully wetted
C.A. Cyclohexane [2, 4]: Fully wetted
C.A. Ethylene Glycol [2, 4]: 103
C.A. Glycerol [2, 4]: 130
C.A. Water [2, 4]: 161
C.A. hexadecane [2, 4]: Fully wetted
P. aeruginosa biofilm formation on coated substrate (P. aeruginosa biofilm): substantially prevented the biofilm formation

CCCCCCCCCCCCCCCCCCCCCCCCCCCCCCCCCCCCCCCC [C40, tetracontane]
B. cereus biofilm formation on coated substrate (B. cereus 407 biofilms): could not adhere successfully to form confluent biofilms
Roughness (RMS) [1]: 0.06-0.09 μm
C.A. Ethylene Glycol [2, 3]: 62
C.A. Glycerol [2, 3]: 69
C.A. Water [2, 3]: 85
C.A. Benzyl Chloride [2, 4]: Fully wetted
C.A. Clorobenzene [2, 4]: Fully wetted
C.A. Cyclohexane [2, 4]: Fully wetted
C.A. Ethylene Glycol [2, 4]: 112
C.A. Glycerol [2, 4]: 144
C.A. Water [2, 4]: 167
C.A. hexadecane [2, 4]: Fully wetted

FC(F)(F)C(F)(F)C(F)(F)C(F)(F)C(F)(F)C(F)(F)C(F)(F)C(F)(F)C(F)(F)C(F)(F)C(F)(F)C(F)(F)C(F)(F)C(F)(F)C(F)(F)C(F)(F)C(F)(F)C(F)(F)C(F)(F)C(F)(F)C(F)(F)C(F)(F)C(F)(F)C(F)(F)F [C24, perfluorotetracosane]
B. cereus biofilm formation on coated substrate (B. cereus 407 biofilms): could not adhere successfully to form confluent biofilms
Roughness (RMS) [1]: 0.12 μm
surface roughness (R.M.S.) ([1]; thermally-evaporated fluorinated wax, at 90° C. after a 60 hour time period): 0.9 μm
surface roughness (R.M.S.), initial ([1]; thermally-evaporated fluorinated wax, before maintaining at 90° C.): 0.7 μm
RMS roughness growth ([1]; 20 hours at 70° C.): about 0.06 μm
RMS roughness growth ([1]; 20 hours at 80° C.): about 0.08 μm
RMS roughness growth ([1]; maintained at 90° C.): about 0.4 μm
C.A. Ethylene Glycol [2, 3]: 100
C.A. Glycerol [2, 3]: 140
C.A. Water [2, 3]: 141
C.A. Ethylene Glycol 18 hr [2, 5]: 167
C.A. Glycerol 18 hr [2, 5]: 163
C.A. Hexadecane 18 hr [2, 5]: 122
C.A. Water 18 hr [2, 5]: 160
C.A. Ethylene Glycol 20 hr [2, 6]: 159
C.A. Glycerol 20 hr [2, 6]: 164
C.A. Hexadecane 20 hr [2, 6]: 115
C.A. Water 20 hr [2, 6]: 165
C.A. Ethylene Glycol 22 hr [2, 7]: 155
C.A. Glycerol 22 hr [2, 7]: 165
C.A. Hexadecane 22 hr [2, 7]: 118
C.A. Water 22 hr [2, 7]: 161
C.A. Ethylene Glycol 30 hr [2, 8]: 160
C.A. Glycerol 30 hr [2, 8]: 167
C.A. Hexadecane 30 hr [2, 8]: 119
C.A. Water 30 hr [2, 8]: 168
C.A. Ethylene Glycol 40 hr [2, 9]: 156
C.A. Glycerol 40 hr [2, 9]: 167
C.A. Hexadecane 40 hr [2, 9]: 124
C.A. Water 40 hr [2, 9]: 168
C.A. Ethylene Glycol 50 hr [2, 10]: 161
C.A. Glycerol 50 hr [2, 10]: 163
C.A. Hexadecane 50 hr [2, 10]: 123
C.A. Water 50 hr [2, 10]: 163
C.A. Ethylene Glycol 60 hr [2, 11]: 166
C.A. Glycerol 60 hr [2, 11]: 166
C.A. Hexadecane 60 hr [2, 11]: 117
C.A. Water 60 hr [2, 11]: 167
time-dependent contact angle of water, glycerol, ethylene glycol and hexadecane ([2]; thermally evaporated on silicon wafer, room temperature, two-week period): slight variation of the measured contact angles
contact angle of olive oil drop ([2]; thermally-evaporated on silicon substrate, FIG. 3A insert): high contact angle
C.A. Benzyl Chloride [2, 4]: 139
C.A. Clorobenzene [2, 4]: 138
C.A. Cyclohexane [2, 4]: 112
C.A. Ethylene Glycol [2, 4]: 171
C.A. Glycerol [2, 4]: 172
C.A. Water [2, 4]: 172
C.A. hexadecane [2, 4]: 112
P. aeruginosa biofilm formation on coated substrate (P. aeruginosa biofilm): substantially prevented the biofilm formation

FC(F)(F)C(F)(F)C(F)(F)C(F)(F)C(F)(F)C(F)(F)C(F)(F)C(F)(F)C(F)(F)C(F)(F)C(F)(F)C(F)(F)C(F)(F)C(F)(F)C(F)(F)C(F)(F)C(F)(F)C(F)(F)C(F)(F)C(F)(F)F [C20, perfluoroeicosane, reference compound]
C.A. Benzyl Chloride [2, 4]: Fully wetted
C.A. Clorobenzene [2, 4]: Fully wetted
C.A. Cyclohexane [2, 4]: Fully wetted
C.A. Ethylene Glycol [2, 4]: 122
C.A. Glycerol [2, 4]: 120
C.A. Water [2, 4]: 128
C.A. hexadecane [2, 4]: Fully wetted
